Laboratory results: patent US11453690B2, “Receptor inhibitor, pharmaceutical composition comprising same, and use thereof” (BEIJING TIDE PHARMACEUTICAL CO., LTD., priority 2018, dated 2022)

biological target: AT2 Receptor (AT2R) (Homo sapiens (Human), UniProt P50052); test: Measurement of inhibitory activity on AT2 receptor (Tag-lite HTRF, Tb-labeled AT2R cells, angiotensin receptor red agonist); assay type: binding; conditions: 1 h room temperature
Description: Measurement of Inhibitory Activity on AT1 Receptor ([…])/AT2 Receptor (AT2R)
Through the following steps, the inhibitory activity of the compound on AT1R/AT2R (IC50 value) was determined:
1) An appropriate amount of 1×TLB (Tag-lite Buffer) was prepared and well mixed for use.
2) The compound was diluted by 10 times with ddH2O or DMSO. The compound was then dilute to 4 times of the working concentration with 1×TLB and mixed well for use.
3) 8600 nM Tag-lite angiotensin receptor red agonist was diluted to 12 nM (4×Kd) with 1×TLB.
4) 5 ml 1×TLB was taken into a 15 ml centrifuge tube.
5) After thawing 1 tube of Tb-labeled AT1R/AT2R cells in a 37° C. water bath, the cells were quickly transferred to the 1×TLB in step 4), mixed gently, and centrifuged at 1200 g for 5 minutes at room temperature.
6) The supernatant was aspirated gently, and the cells were resuspended and mixed in 2.7 ml 1×TLB, and then placed at room temperature until use.
7) 10 μl cells were added to all test wells, and 5 μl 4× working solution of the compound from step 2) was added to the corresponding test wells. 5 μl 4× Tag-lite angiotensin receptor red agonist well diluted in step 3) was added to all test wells.
8) After leaving the reaction plate at room temperature for 1 h, data were measured and analyzed using Envision HTRF Reader, and the half inhibitory concentration (IC50) of the compound on AT1R/AT2R was calculated with the GraphPad Prism four-parameter equation.

AT2 Receptor (AT2R), sequence (P50052 whole entry): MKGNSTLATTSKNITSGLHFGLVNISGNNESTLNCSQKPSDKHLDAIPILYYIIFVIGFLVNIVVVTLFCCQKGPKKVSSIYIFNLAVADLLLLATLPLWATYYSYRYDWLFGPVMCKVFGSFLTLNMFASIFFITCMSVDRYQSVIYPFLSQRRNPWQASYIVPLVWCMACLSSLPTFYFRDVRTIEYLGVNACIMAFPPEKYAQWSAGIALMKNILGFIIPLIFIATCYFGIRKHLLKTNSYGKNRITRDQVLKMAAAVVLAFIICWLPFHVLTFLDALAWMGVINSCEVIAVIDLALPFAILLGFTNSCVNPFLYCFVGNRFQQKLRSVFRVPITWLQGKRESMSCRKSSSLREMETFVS

SMILES | IC50
CN(Cc1ccsc1)C(=O)N1[C@H]2CC[C@@H]1[C@@H](C(=O)O)N(C(=O)C(c1ccccc1)c1ccccc1)C2 [Compound C187, (1R,2S,5S)-3-(2,2-diphenylacetyl)-8-(methyl(thiophene-3-ylmethyl)carbamoyl)-3,8-diazabicyclo [3.2.1]octane-2-carboxylic acid] | 3.75 nM
CCN(Cc1ccsc1)C(=O)N1[C@H]2CC[C@@H]1[C@@H](C(=O)O)N(C(=O)C(c1ccccc1)c1ccccc1)C2 [Compound C188, (1R,2S,5S)-3-(2,2-diphenylacetyl)-8-(ethyl(thiophene-3-ylmethyl)carbamoyl)-3,8-diazabicyclo [3.2.1]octane-2-carboxylic acid] | 7.11 nM
Cc1ccc(COC(=O)N2[C@H]3CC[C@@H]2[C@@H](C(=O)O)N(C(=O)C(c2ccccc2)c2ccccc2)C3)cc1 [Compound C194, (1R,2S,5S)-3-(2,2-diphenylacetyl)-8-(((4-methylbenzyl)oxy)carbonyl)-3,8-diazabicyclo [3.2.1]octane-2-carboxylic acid] | 129 nM
O=C(O)[C@@H]1[C@H]2CC[C@@H](CN1C(=O)N(c1ccccc1)c1ccccc1)N2C(=O)N(Cc1ccsc1)C1CC1 [Compound C196, (1R,2S,5S)-8-(cyclopropyl (thiophene-3-yl-methyl)carbamoyl)-3-(diphenylcarbamoyl)-3,8-diazabicyclo [3.2.1]octane-2-carboxylic acid] | 1.63 nM
CC1(N(Cc2ccsc2)C(=O)N2[C@H]3CC[C@@H]2[C@@H](C(=O)O)N(C(=O)N(c2ccccc2)c2ccccc2)C3)CC1 [Compound C198] | 10.2 nM
O=C(O)[C@@H]1[C@H]2CC[C@@H](CN1C(=O)N(c1ccccc1)c1ccccc1)N2C(=O)N(Cc1cccs1)C1CC1 [Compound C200, (1R,2S,5S)-8-(cyclopropyl (thiophene-2-ylmethyl)carbamoyl)-3-(diphenylcarbamoyl)-3,8-diazabicyclo [3.2.1]octane-2-carboxylic acid] | 3.25 nM
CCN(Cc1cccs1)C(=O)N1[C@H]2CC[C@@H]1[C@@H](C(=O)O)N(C(=O)N(c1ccccc1)c1ccccc1)C2 [Compound C201, (1R,2S,5S)-3-(diphenylcarbamoyl)-8-(ethyl(thiophene-2-ylmethyl)carbamoyl)-3,8-diazabicyclo [3.2.1]octane-2-carboxylic acid] | 18.4 nM
CCN(Cc1ccc(C)s1)C(=O)N1[C@H]2CC[C@@H]1[C@@H](C(=O)O)N(C(=O)N(c1ccccc1)c1ccccc1)C2 [Compound C202, (1R,2S,5S)-3-(diphenylcarbamoyl)-8-(ethyl((5-methylthiophen-2-yl)methyl)carbamoyl)-3,8-diazabicyclo [3.2.1]octane-2-carboxylic acid] | 3.87 nM
Cc1ccc(CN(C)C(=O)N2[C@H]3CC[C@@H]2[C@@H](C(=O)O)N(C(=O)N(c2ccccc2)c2ccccc2)C3)s1 [Compound C203, (1R,2S,5S)-3-(diphenylcarbamoyl)-8-(methyl ((5-methylthiophen-2-yl)methyl)carbamoyl)-3,8-diazabicyclo [3.2.1]octane-2-carboxylic acid] | 13.7 nM
Cc1ccc(CN(C(=O)N2[C@H]3CC[C@@H]2[C@@H](C(=O)O)N(C(=O)N(c2ccccc2)c2ccccc2)C3)C2CC2)s1 [Compound C204] | 4.93 nM
O=C(O)[C@@H]1[C@H]2CC[C@@H](CN1C(=O)N(c1ccccc1)c1ccccc1)N2C(=O)N(Cc1ccsc1)CC1CC1 [Compound C205, (1R,2S,5S)-8-((cyclopropylmethyl) (thiophene-3-ylmethyl)carbamoyl)-3-(diphenylcarbamoyl)-3,8-diazabicyclo [3.2.1]octane-2-carboxylic acid] | 42.8 nM
CCN(Cc1ccsc1)C(=O)N1[C@H]2CC[C@@H]1[C@@H](C(=O)O)N(C(=O)N(c1ccccc1)c1ccccc1)C2 [Compound C207, (1R,2S,5S)-3-(diphenylcarbamoyl)-8-(ethyl (thiophene-3-ylmethyl)carbamoyl)-3,8-diazabicyclo [3.2.1]octane-2-carboxylic acid] | 10.4 nM
CCN(Cc1csc(C)c1)C(=O)N1[C@H]2CC[C@@H]1[C@@H](C(=O)O)N(C(=O)N(c1ccccc1)c1ccccc1)C2 [Compound C208, (1R,2S,5S)-3-(diphenylcarbamoyl)-8-(ethyl((5-methylthiophen-3-yl)methyl)carbamoyl)-3,8-diazabicyclo [3.2.1]octane-2-carboxylic acid] | 11.8 nM
CCN(Cc1cscn1)C(=O)N1[C@H]2CC[C@@H]1[C@@H](C(=O)O)N(C(=O)N(c1ccccc1)c1ccccc1)C2 [Compound C209, (1R,2S,5S)-3-(diphenylcarbamoyl)-8-(ethyl(thiazole-4-ylmethyl)carbamoyl)-3,8-diazabicyclo [3.2.1]octane-2-carboxylic acid] | 81.4 nM
O=C(O)[C@@H]1[C@H]2CC[C@@H](CN1C(=O)N(c1ccccc1)c1ccccc1)N2c1nccc(-c2ccccc2)n1 [Compound C210, (1R,2S,5S)-3-(diphenylcarbamoyl)-8-(4-phenylpyrimidine-2-yl)-3,8-diazabicyclo[3.2.1] octane-2-carboxylic acid] | 49.5 nM
CCN(Cc1ccccc1Cl)C(=O)N1[C@H]2CC[C@@H]1[C@@H](C(=O)O)N(C(=O)N(c1ccccc1)c1ccccc1)C2 [Compound C212, (1R,2S,SS)-8-((2-chlorobenzyl) (ethyl)carbamoyl)-3-(diphenylcarbamoyl)-3,8-diazabicyclo [3.2.1]octane-2-carboxylic acid] | 9.04 nM
CC(C)c1ccc(CN(C)C(=O)N2[C@H]3CC[C@@H]2[C@@H](C(=O)O)N(C(=O)N(c2ccccc2)c2ccccc2)C3)cc1 [Compound C214, (1R,2S,5S)-3-(diphenylcarbamoyl)-8-((4-isopropylbenzyl) (methyl)carbamoyl)-3,8-diazabicyclo [3.2.1]octane-2-carboxylic acid] | 11.3 nM
C=C(C)c1ccc(CN(C)C(=O)N2[C@H]3CC[C@@H]2[C@@H](C(=O)O)N(C(=O)N(c2ccccc2)c2ccccc2)C3)cc1 [Compound C215] | 26.5 nM
CCN(Cc1ccc(Cl)cc1)C(=O)N1[C@H]2CC[C@@H]1[C@@H](C(=O)O)N(C(=O)N(c1ccccc1)c1ccccc1)C2 [Compound C217, (1R,2S,5S)-8-((4-chlorobenzyl) (ethyl)carbamoyl)-3-(diphenylcarbamoyl)-3,8-diazabicyclo [3.2.1]octane-2-carboxylic acid] | 9.13 nM
O=C(O)[C@@H]1[C@H]2CC[C@@H](CN1C(=O)N(c1ccccc1)c1ccccc1)N2C(=O)N(Cc1ccc(Cl)cc1)CC1CC1 [Compound C218, (1R,2S,5S)-8-((4-chlorobenzyl) (cyclopropylmethyl)carbamoyl)-3-(diphenylcarbamoyl)-3,8-diazabicyclo [3.2.1]octane-2-carboxylic acid] | 11.5 nM
O=C(O)[C@@H]1[C@H]2CC[C@@H](CN1C(=O)N(c1ccccc1)c1ccccc1)N2C(=O)CCc1ccccc1 [Compound C221, (1R,2S,5S)-3-(diphenylcarbamoyl)-8-(3-phenylpropionyl)-3,8-diazabicyclo [3.2.1]octane-2-carboxylic acid] | 76.7 nM
O=C(O)[C@@H]1[C@H]2CC[C@@H](CN1C(=O)C(c1ccccc1)c1ccccc1)N2C(=O)CCc1ccccc1 [Compound C222, (1R,2S,5S)-3-(2,2-diphenylacetyl)-8-(3-phenylpropionyl)-3,8-diazabicyclo [3.2.1]octane-2-carboxylic acid] | 11.7 nM
CC(CC(=O)N1[C@H]2CC[C@@H]1[C@@H](C(=O)O)N(C(=O)C(c1ccccc1)c1ccccc1)C2)c1ccccc1 (stereo partly drawn) [Compound C223, (1R,2S,5S)-3-(2,2-diphenylacetyl)-8-(3-phenylbutyryl)-3,8-diazabicyclo [3.2.1]octane-2-carboxylic acid] | 7.87 nM
CC(CC(=O)N1[C@H]2CC[C@@H]1[C@@H](C(=O)O)N(C(=O)N(c1ccccc1)c1ccccc1)C2)c1ccccc1 (stereo partly drawn) [Compound C224, (1R,2S,5S)-3-(diphenylcarbamoyl)-8-(3-phenylbutylyl)-3,8-diazabicyclo [3.2.1]octane-2-carboxylic acid] | 23.8 nM
CC(c1ccccc1)N(C)C(=O)N1[C@H]2CC[C@@H]1[C@@H](C(=O)O)N(C(=O)N(c1ccccc1)c1ccccc1)C2 (stereo partly drawn) [Compound C225, (1R,2S,5S)-3-(diphenylcarbamoyl)-8-(methyl (1-phenylethyl)carbamoyl)-3,8-diazabicyclo [3.2.1]octane-2-carboxylic acid] | 11.7 nM
C[C@H](c1ccccc1)N(C)C(=O)N1[C@H]2CC[C@@H]1[C@@H](C(=O)O)N(C(=O)N(c1ccccc1)c1ccccc1)C2 [Compound C226, (1R,2S,5S)-3-(diphenylcarbamoyl)-8-(methyl((R)-1-phenylethyl)carbamoyl)-3,8-diazabicyclo [3.2.1]octane-2-carboxylic acid] | 12.7 nM
C[C@@H](c1ccccc1)N(C)C(=O)N1[C@H]2CC[C@@H]1[C@@H](C(=O)O)N(C(=O)N(c1ccccc1)c1ccccc1)C2 [Compound C227, (1R,2S,5S)-3-(diphenylcarbamoyl)-8-(methyl ((S)-1-phenylethyl)carbamoyl)-3,8-diazabicyclo [3.2.1]octane-2-carboxylic acid] | 18.3 nM
